Reference: article PMC4515243, “Phase 1 pharmacokinetic study of the oral pan-AKT inhibitor MK-2206 in Japanese patients with advanced solid tumors” (Cancer Chemotherapy and Pharmacology, 2015)

Test system: Japanese patients with advanced solid tumors
Assay: phase 1 safety and tolerability (DLT, adverse events) in Japanese patients;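 further: toxicities graded by NCI CTCAE version 3.0, treatment given until disease progression or unacceptable toxicity, three to nine patients enrolled per dose level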
[1] = 60 mg QOD, grade 3 mucosal inflammation

Excerpt: Treatment was continued until disease progression or the occurrence of an unacceptable toxicity.
A minimum of three and up to nine patients were enrolled at each dose level based on the toxicity probability intervals [9].
Adverse events were graded using the National Cancer Institute Common Terminology Criteria for Adverse Events, version 3.0.

NC1(c2ccc(-c3nc4ccn5c(=O)[nH]nc5c4cc3-c3ccccc3)cc2)CCC1 [MK-2206]
0: ALT increased, drug-related adverse event, patients (45 mg QOD (n = 3), All grades) | Eosinophil count increased, drug-related adverse event, patients (45 mg QOD (n = 3), All grades) | Erythema multiforme, drug-related adverse event, patients (45 mg QOD (n = 3), All grades) | HbA1C increased, drug-related adverse event, patients (45 mg QOD (n = 3), All grades) | Hypernatremia, drug-related adverse event, patients (45 mg QOD (n = 3), All grades) | Hypoalbuminemia, drug-related adverse event, patients (45 mg QOD (n = 3), All grades) | Hypokalemia, drug-related adverse event, patients (45 mg QOD (n = 3), All grades) | Localized edema, drug-related adverse event, patients (45 mg QOD (n = 3), All grades) | Nausea, drug-related adverse event, patients (45 mg QOD (n = 3), All grades) | Vomiting, drug-related adverse event, patients (45 mg QOD (n = 3), All grades) | ALT increased, drug-related adverse event, patients (45 mg QOD (n = 3), Grades 3–5) | Blood creatinine increased, drug-related adverse event, patients (45 mg QOD (n = 3), Grades 3–5) | Decreased appetite, drug-related adverse event, patients (45 mg QOD (n = 3), Grades 3–5) | Dry skin, drug-related adverse event, patients (45 mg QOD (n = 3), Grades 3–5) | Eosinophil count increased, drug-related adverse event, patients (45 mg QOD (n = 3), Grades 3–5) | Eosinophilia, drug-related adverse event, patients (45 mg QOD (n = 3), Grades 3–5) | Erythema multiforme, drug-related adverse event, patients (45 mg QOD (n = 3), Grades 3–5) | Fatigue, drug-related adverse event, patients (45 mg QOD (n = 3), Grades 3–5) | HbA1C increased, drug-related adverse event, patients (45 mg QOD (n = 3), Grades 3–5) | Hyperglycemia, drug-related adverse event, patients (45 mg QOD (n = 3), Grades 3–5) | Hypernatremia, drug-related adverse event, patients (45 mg QOD (n = 3), Grades 3–5) | Hypoalbuminemia, drug-related adverse event, patients (45 mg QOD (n = 3), Grades 3–5) | Hypokalemia, drug-related adverse event, patients (45 mg QOD (n = 3), Grades 3–5) | Insulin c-peptide increased, drug-related adverse event, patients (45 mg QOD (n = 3), Grades 3–5) | Leukopenia, drug-related adverse event, patients (45 mg QOD (n = 3), Grades 3–5) | Localized edema, drug-related adverse event, patients (45 mg QOD (n = 3), Grades 3–5) | Nausea, drug-related adverse event, patients (45 mg QOD (n = 3), Grades 3–5) | Palmar-plantar erythrodysaesthesia syndrome, drug-related adverse event, patients (45 mg QOD (n = 3), Grades 3–5) | Pruritus, drug-related adverse event, patients (45 mg QOD (n = 3), Grades 3–5) | Pyrexia, drug-related adverse event, patients (45 mg QOD (n = 3), Grades 3–5) | Rash, drug-related adverse event, patients (45 mg QOD (n = 3), Grades 3–5) | Stomatitis, drug-related adverse event, patients (45 mg QOD (n = 3), Grades 3–5) | Vomiting, drug-related adverse event, patients (45 mg QOD (n = 3), Grades 3–5) | Dry skin, drug-related adverse event, patients (60 mg QOD (n = 9), All grades) | Eosinophil count increased, drug-related adverse event, patients (60 mg QOD (n = 9), All grades) | Erythema multiforme, drug-related adverse event, patients (60 mg QOD (n = 9), All grades) | Localized edema, drug-related adverse event, patients (60 mg QOD (n = 9), All grades) | Vomiting, drug-related adverse event, patients (60 mg QOD (n = 9), All grades) | ALT increased, drug-related adverse event, patients (60 mg QOD (n = 9), Grades 3–5) | Blood creatinine increased, drug-related adverse event, patients (60 mg QOD (n = 9), Grades 3–5) | Decreased appetite, drug-related adverse event, patients (60 mg QOD (n = 9), Grades 3–5) | Diarrhea, drug-related adverse event, patients (60 mg QOD (n = 9), Grades 3–5) | Dry skin, drug-related adverse event, patients (60 mg QOD (n = 9), Grades 3–5) | Eosinophil count increased, drug-related adverse event, patients (60 mg QOD (n = 9), Grades 3–5) | Eosinophilia, drug-related adverse event, patients (60 mg QOD (n = 9), Grades 3–5) | Erythema multiforme, drug-related adverse event, patients (60 mg QOD (n = 9), Grades 3–5) | Fatigue, drug-related adverse event, patients (60 mg QOD (n = 9), Grades 3–5) | HbA1C increased, drug-related adverse event, patients (60 mg QOD (n = 9), Grades 3–5) | Hyperglycemia, drug-related adverse event, patients (60 mg QOD (n = 9), Grades 3–5) | Hypernatremia, drug-related adverse event, patients (60 mg QOD (n = 9), Grades 3–5) | Hypoalbuminemia, drug-related adverse event, patients (60 mg QOD (n = 9), Grades 3–5) | Hypokalemia, drug-related adverse event, patients (60 mg QOD (n = 9), Grades 3–5) | Insulin c-peptide increased, drug-related adverse event, patients (60 mg QOD (n = 9), Grades 3–5) | Leukopenia, drug-related adverse event, patients (60 mg QOD (n = 9), Grades 3–5) | Localized edema, drug-related adverse event, patients (60 mg QOD (n = 9), Grades 3–5) | Nausea, drug-related adverse event, patients (60 mg QOD (n = 9), Grades 3–5) | Neutropenia, drug-related adverse event, patients (60 mg QOD (n = 9), Grades 3–5) | Palmar-plantar erythrodysaesthesia syndrome, drug-related adverse event, patients (60 mg QOD (n = 9), Grades 3–5) | Pruritus, drug-related adverse event, patients (60 mg QOD (n = 9), Grades 3–5) | Pyrexia, drug-related adverse event, patients (60 mg QOD (n = 9), Grades 3–5) | Stomatitis, drug-related adverse event, patients (60 mg QOD (n = 9), Grades 3–5) | Vomiting, drug-related adverse event, patients (60 mg QOD (n = 9), Grades 3–5) | ALT increased, drug-related adverse event, patients (135 mg QW (n = 3), All grades) | Blood creatinine increased, drug-related adverse event, patients (135 mg QW (n = 3), All grades) | Erythema multiforme, drug-related adverse event, patients (135 mg QW (n = 3), All grades) | Hypernatremia, drug-related adverse event, patients (135 mg QW (n = 3), All grades) | Hypoalbuminemia, drug-related adverse event, patients (135 mg QW (n = 3), All grades) | Leukopenia, drug-related adverse event, patients (135 mg QW (n = 3), All grades) | Localized edema, drug-related adverse event, patients (135 mg QW (n = 3), All grades) | Lymphopenia, drug-related adverse event, patients (135 mg QW (n = 3), All grades) | Palmar-plantar erythrodysaesthesia syndrome, drug-related adverse event, patients (135 mg QW (n = 3), All grades) | Pruritus, drug-related adverse event, patients (135 mg QW (n = 3), All grades) | Pyrexia, drug-related adverse event, patients (135 mg QW (n = 3), All grades) | Stomatitis, drug-related adverse event, patients (135 mg QW (n = 3), All grades) | ALT increased, drug-related adverse event, patients (135 mg QW (n = 3), Grades 3–5) | Blood creatinine increased, drug-related adverse event, patients (135 mg QW (n = 3), Grades 3–5) | Decreased appetite, drug-related adverse event, patients (135 mg QW (n = 3), Grades 3–5) | Diarrhea, drug-related adverse event, patients (135 mg QW (n = 3), Grades 3–5) | Dry skin, drug-related adverse event, patients (135 mg QW (n = 3), Grades 3–5) | Eosinophil count increased, drug-related adverse event, patients (135 mg QW (n = 3), Grades 3–5)
4: Fatigue, drug-related adverse event, patients (60 mg QOD (n = 9), All grades) | Pruritus, drug-related adverse event, patients (60 mg QOD (n = 9), All grades)
One of the nine: patients with DLT during Cycle 1 [1]
7: Insulin c-peptide increased, drug-related adverse event, patients (60 mg QOD (n = 9), All grades) | Pyrexia, drug-related adverse event, patients (60 mg QOD (n = 9), All grades)
28 days: time until the onset of the DLT after the start of treatment [1]
3: Rash, drug-related adverse event, patients (45 mg QOD (n = 3), All grades) | Hyperglycemia, drug-related adverse event, patients (60 mg QOD (n = 9), All grades)
1: Blood creatinine increased, drug-related adverse event, patients (45 mg QOD (n = 3), All grades) | Decreased appetite, drug-related adverse event, patients (45 mg QOD (n = 3), All grades) | Diarrhea, drug-related adverse event, patients (45 mg QOD (n = 3), All grades) | Fatigue, drug-related adverse event, patients (45 mg QOD (n = 3), All grades) | Hyperglycemia, drug-related adverse event, patients (45 mg QOD (n = 3), All grades) | Palmar-plantar erythrodysaesthesia syndrome, drug-related adverse event, patients (45 mg QOD (n = 3), All grades) | Pruritus, drug-related adverse event, patients (45 mg QOD (n = 3), All grades) | Pyrexia, drug-related adverse event, patients (45 mg QOD (n = 3), All grades) | Diarrhea, drug-related adverse event, patients (45 mg QOD (n = 3), Grades 3–5) | Neutropenia, drug-related adverse event, patients (45 mg QOD (n = 3), Grades 3–5) | ALT increased, drug-related adverse event, patients (60 mg QOD (n = 9), All grades) | Blood creatinine increased, drug-related adverse event, patients (60 mg QOD (n = 9), All grades) | Decreased appetite, drug-related adverse event, patients (60 mg QOD (n = 9), All grades) | Hypernatremia, drug-related adverse event, patients (60 mg QOD (n = 9), All grades) | Hypokalemia, drug-related adverse event, patients (60 mg QOD (n = 9), All grades) | Nausea, drug-related adverse event, patients (60 mg QOD (n = 9), All grades) | Palmar-plantar erythrodysaesthesia syndrome, drug-related adverse event, patients (60 mg QOD (n = 9), All grades) | Rash, drug-related adverse event, patients (60 mg QOD (n = 9), Grades 3–5) | Decreased appetite, drug-related adverse event, patients (135 mg QW (n = 3), All grades) | Diarrhea, drug-related adverse event, patients (135 mg QW (n = 3), All grades) | Dry skin, drug-related adverse event, patients (135 mg QW (n = 3), All grades) | Eosinophilia, drug-related adverse event, patients (135 mg QW (n = 3), All grades) | Fatigue, drug-related adverse event, patients (135 mg QW (n = 3), All grades) | HbA1C increased, drug-related adverse event, patients (135 mg QW (n = 3), All grades) | Hypokalemia, drug-related adverse event, patients (135 mg QW (n = 3), All grades) | Nausea, drug-related adverse event, patients (135 mg QW (n = 3), All grades) | Neutropenia, drug-related adverse event, patients (135 mg QW (n = 3), All grades) | Vomiting, drug-related adverse event, patients (135 mg QW (n = 3), All grades)
No DLTs: DLTs during Cycle 1 (45 mg QOD, three patients)
6: Eosinophilia, drug-related adverse event, patients (60 mg QOD (n = 9), All grades) | Stomatitis, drug-related adverse event, patients (60 mg QOD (n = 9), All grades)
5: Diarrhea, drug-related adverse event, patients (60 mg QOD (n = 9), All grades) | Lymphopenia, drug-related adverse event, patients (60 mg QOD (n = 9), All grades)
9: Rash, drug-related adverse event, patients (60 mg QOD (n = 9), All grades)
no DLTs: DLTs during Cycle 1 (135 mg QW)
2: Dry skin, drug-related adverse event, patients (45 mg QOD (n = 3), All grades) | Eosinophilia, drug-related adverse event, patients (45 mg QOD (n = 3), All grades) | Insulin c-peptide increased, drug-related adverse event, patients (45 mg QOD (n = 3), All grades) | Leukopenia, drug-related adverse event, patients (45 mg QOD (n = 3), All grades) | Lymphopenia, drug-related adverse event, patients (45 mg QOD (n = 3), All grades) | Neutropenia, drug-related adverse event, patients (45 mg QOD (n = 3), All grades) | Stomatitis, drug-related adverse event, patients (45 mg QOD (n = 3), All grades) | Lymphopenia, drug-related adverse event, patients (45 mg QOD (n = 3), Grades 3–5) | HbA1C increased, drug-related adverse event, patients (60 mg QOD (n = 9), All grades) | Hypoalbuminemia, drug-related adverse event, patients (60 mg QOD (n = 9), All grades) | Leukopenia, drug-related adverse event, patients (60 mg QOD (n = 9), All grades) | Neutropenia, drug-related adverse event, patients (60 mg QOD (n = 9), All grades) | Lymphopenia, drug-related adverse event, patients (60 mg QOD (n = 9), Grades 3–5) | Eosinophil count increased, drug-related adverse event, patients (135 mg QW (n = 3), All grades) | Hyperglycemia, drug-related adverse event, patients (135 mg QW (n = 3), All grades) | Insulin c-peptide increased, drug-related adverse event, patients (135 mg QW (n = 3), All grades) | Rash, drug-related adverse event, patients (135 mg QW (n = 3), All grades)
